From ChEMBL document CHEMBL1135004, “Natural and synthetic geiparvarins are strong and selective MAO-B inhibitors. Synthesis and SAR studies” (Bioorg Med Chem Lett, 2002)

Assays:
[1] = molecular target: T1, Amine oxidase [flavin-containing] B (Homo sapiens, UniProt P27338); assay: Inhibitory potency against Monoamine oxidase B
T1 sequence (P27338 whole entry): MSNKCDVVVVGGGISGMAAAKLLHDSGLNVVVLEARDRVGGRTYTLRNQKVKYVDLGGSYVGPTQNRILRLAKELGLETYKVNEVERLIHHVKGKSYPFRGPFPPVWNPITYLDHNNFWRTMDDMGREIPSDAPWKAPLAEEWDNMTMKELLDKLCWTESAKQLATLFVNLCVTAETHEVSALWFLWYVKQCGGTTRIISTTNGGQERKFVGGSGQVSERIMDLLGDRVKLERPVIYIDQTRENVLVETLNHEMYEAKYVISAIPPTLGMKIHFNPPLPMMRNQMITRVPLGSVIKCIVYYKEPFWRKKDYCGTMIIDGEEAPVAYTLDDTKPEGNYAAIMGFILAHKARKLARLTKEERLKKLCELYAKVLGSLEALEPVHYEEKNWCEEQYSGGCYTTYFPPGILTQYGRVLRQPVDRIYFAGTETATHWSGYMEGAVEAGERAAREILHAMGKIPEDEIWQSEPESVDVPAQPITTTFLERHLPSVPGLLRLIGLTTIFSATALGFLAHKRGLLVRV

[2] = molecular target: T2, Amine oxidase [flavin-containing] A (Homo sapiens, UniProt P21397); assay: Inhibitory potency against Monoamine oxidase A
T2 sequence (P21397 whole entry): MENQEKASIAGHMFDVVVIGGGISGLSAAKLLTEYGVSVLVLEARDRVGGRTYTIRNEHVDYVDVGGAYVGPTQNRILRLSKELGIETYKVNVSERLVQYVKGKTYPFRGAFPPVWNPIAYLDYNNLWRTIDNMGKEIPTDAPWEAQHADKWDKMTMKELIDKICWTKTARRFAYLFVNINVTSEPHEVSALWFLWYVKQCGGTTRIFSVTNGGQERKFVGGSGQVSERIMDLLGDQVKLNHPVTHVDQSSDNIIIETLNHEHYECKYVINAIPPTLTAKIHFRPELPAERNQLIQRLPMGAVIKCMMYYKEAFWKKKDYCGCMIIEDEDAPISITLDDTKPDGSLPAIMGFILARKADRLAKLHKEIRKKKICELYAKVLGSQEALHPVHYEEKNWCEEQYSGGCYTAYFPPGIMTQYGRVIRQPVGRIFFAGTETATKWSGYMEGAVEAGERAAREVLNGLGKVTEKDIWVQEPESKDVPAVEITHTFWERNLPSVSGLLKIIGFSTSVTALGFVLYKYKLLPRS

[3] = molecular target: T3, Monoamine oxidase A (Homo sapiens, UniProt P21397); assay: Inhibitory potency against Monoamine oxidase A at 10 uM
T3 sequence (P21397 whole entry): T2 sequence (P21397 whole entry)

[4] = molecular target: T3, Monoamine oxidase A; assay: Inhibitory potency against Monoamine oxidase A at 3 uM

SMILES	IC50 [1]	IC50 [2]	inhibition at 10 µM [3]	inhibition at 3 µM [4]
CC1(C)OC(/C=C/COc2ccc3ccc(=O)oc3c2)=CC1=O	0.0282 µM	24 µM	–	–
CC(=O)/C=C/C=C/COc1ccc2ccc(=O)oc2c1	1.7 µM	–	26%	–
C/C(=C\COc1ccc2c(C)c(C)c(=O)oc2c1)C1=CC(=O)C(C)(C)O1	0.129 µM	–	37%	–
CC1(c2ccccc2)OC(/C=C/COc2ccc3ccc(=O)oc3c2)=CC1=O (stereo unspecified)	1.51 µM	–	–	0%
C/C(=C\COc1ccc2ccc(=O)oc2c1)C1=CC(=O)C(C)(C)O1 [GEIPARVARIN]	0.145 µM	26.9 µM	–	–

Continued, values first:

IC50 [1]	IC50 [2]	inhibition at 10 µM [3]	inhibition at 3 µM [4]	SMILES
0.17 µM	–	27%	–	Cc1cc(=O)oc2cc(OC/C=C/C3=CC(=O)C(C)(C)O3)ccc12
0.589 µM	15.1 µM	–	–	Cc1cc2ccc(OC/C=C/C3=CC(=O)C(C)(C)O3)cc2oc1=O
0.631 µM	11.2 µM	–	–	Cc1c(C)c2ccc(OC/C=C/C3=CC(=O)C(C)(C)O3)cc2oc1=O
